Like-named read-outs stand apart in the source and are kept apart here.
Tests used:
SARS-CoV-2 3CL protease = SARS-CoV-2 3CL protease (Severe acute respiratory syndrome coronavirus 2, UniProt P0DTD1); test: biochemical; settings: 50% SARS-CoV-2 3CL protease inhibitory concentration, read-out: IC50
SARS-CoV-2 = test: microbe, parasite or virus in culture; type: cell-based; settings: Severe acute respiratory syndrome coronavirus 2, VeroE6/TMPRSS2, 72 h, 50% SARS-CoV-2 infected cell death inhibitory concentration, VeroE6/TMPRSS2 cells, 3 days culture

SMILES	IC50 (SARS-CoV-2 3CL protease; given as class symbols)	EC50 (SARS-CoV-2; class symbols)	IC50 (SARS-CoV-2 3CL protease; RapidFire MS)	EC50 (SARS-CoV-2; CellTiter-Glo 2.0)
Cn1cc2cc(Nc3nc(=O)n(Cc4ccc[nH]c4=O)c(=O)n3Cc3cc(F)c(F)c(F)c3)c(Cl)cc2n1 [Compound I-0436]	< 0.1 µM	< 1 µM		
COc1cc(Cl)c(Nc2nc(=O)n(Cc3ccc[nH]c3=O)c(=O)n2Cc2cc(F)c(F)c(F)c2)c(Cl)c1 [Compound I-0437]	< 0.1 µM	1 to 10 µM		
Cc1nc2cc(Cl)c(Nc3nc(=O)n(Cc4ccc[nH]c4=O)c(=O)n3Cc3cc(F)c(F)c(F)c3)cc2n1CC(F)F [Compound I-0444]	< 0.1 µM	1 to 10 µM	0.0051 µM	3.94 µM
CC(C)(O)Cn1cc2cc(Nc3nc(=O)n(Cc4ccc[nH]c4=O)c(=O)n3Cc3cc(F)c(F)c(F)c3)c(Cl)cc2n1 [Compound I-0447]	< 0.1 µM	1 to 10 µM		
O=c1[nH]cccc1Cn1c(=O)nc(Nc2cc3cn(CCCO)nc3cc2Cl)n(Cc2cc(F)c(F)c(F)c2)c1=O [Compound I-0450]	< 0.1 µM	1 to 10 µM		
O=C1CC=CC=C1Cn1c(=O)nc(Nc2cc3cn(C4CCOCC4)nc3cc2Cl)n(Cc2cc(F)c(F)c(F)c2)c1=O [Compound I-0451]	< 0.1 µM	1 to 10 µM		
O=c1[nH]cc(Cl)cc1Cn1c(=O)nc(Nc2cc3cn(CCCO)nc3cc2Cl)n(Cc2cc(F)c(F)c(F)c2)c1=O [Compound I-0454]	< 0.1 µM	1 to 10 µM		
CC(C)(O)Cn1cc2cc(Nc3nc(=O)n(Cc4cc(Cl)c[nH]c4=O)c(=O)n3Cc3cc(F)c(F)c(F)c3)c(Cl)cc2n1 [Compound I-0455]	< 0.1 µM	1 to 10 µM		
Cc1nc2cc(Cl)c(Nc3nc(=O)n(-c4cccc5ccccc45)c(=O)n3Cc3cc(F)c(F)c(F)c3)cc2n1C [Compound I-0456]	< 0.1 µM	1 to 10 µM		
O=c1[nH]cccc1Cn1c(=O)nc(Nc2cc3c(cc2Cl)nc2n3CCOC2)n(Cc2cc(F)c(F)c(F)c2)c1=O [Compound I-0457]			0.0072 µM	5.3 µM
Cc1nc2cc(Cl)c(Nc3nc(=O)n(Cc4ccc[nH]c4=O)c(=O)n3Cc3cc(F)c(F)c(F)c3)cc2o1 [Compound I-0459]	< 0.1 µM	1 to 10 µM		
CNc1nc2ccc(Nc3nc(=O)n(Cc4ccc[nH]c4=O)c(=O)n3Cc3cc(F)c(F)c(F)c3)cc2s1 [Compound I-0460]	< 0.1 µM	1 to 10 µM		
Cc1nc2cc(Nc3nc(=O)n(Cc4ccc[nH]c4=O)c(=O)n3Cc3cc(F)c(F)c(F)c3)c(Cl)cc2o1 [Compound I-0461]	< 0.1 µM	1 to 10 µM		
COC(=O)COc1ccc(Nc2nc(=O)n(Cc3ccc[nH]c3=O)c(=O)n2Cc2cc(F)c(F)c(F)c2)c(Cl)c1 [Compound I-0462]	< 0.1 µM	1 to 10 µM		
CC(=O)Nc1nc2cc(Cl)c(Nc3nc(=O)n(Cc4ccc[nH]c4=O)c(=O)n3Cc3cc(F)c(F)c(F)c3)cc2s1 [Compound I-0465]	< 0.1 µM	1 to 10 µM	0.0042 µM	3.27 µM
CC(C)(C)OC(=O)Nc1nc2cc(Cl)c(Nc3nc(=O)n(Cc4ccc[nH]c4=O)c(=O)n3Cc3cc(F)c(F)c(F)c3)cc2s1 [Compound I-0466]	< 0.1 µM	< 1 µM		
CNc1nc2cc(Cl)c(Nc3nc(=O)n(Cc4ccc[nH]c4=O)c(=O)n3Cc3cc(F)c(F)c(F)c3)cc2s1 [Compound I-0467]	< 0.1 µM	1 to 10 µM		
CCNc1nc2cc(Cl)c(Nc3nc(=O)n(Cc4ccc[nH]c4=O)c(=O)n3Cc3cc(F)c(F)c(F)c3)cc2s1 [Compound I-0468]	< 0.1 µM	1 to 10 µM		
O=c1[nH]cccc1Cn1c(=O)nc(Nc2cc3cn(C4CC(F)(F)C4)nc3cc2Cl)n(Cc2cc(F)c(F)c(F)c2)c1=O [Compound I-0470]	< 0.1 µM	1 to 10 µM		
CC(=O)NCCn1cc2cc(Nc3nc(=O)n(-c4cncc5ccccc45)c(=O)n3Cc3cc(F)c(F)c(F)c3)c(Cl)cc2n1 [Compound I-0471]	< 0.1 µM	1 to 10 µM		
O=c1nc(Nc2ccc3nn(CC(F)F)cc3c2)n(Cc2cc(F)c(F)c(F)c2)c(=O)n1-c1cncc2ccccc12 [Compound I-0472]	< 0.1 µM	< 1 µM		
COc1ccc(Nc2nc(=O)n(-c3cncc4ccccc34)c(=O)n2Cc2cc(F)c(F)c(C#N)c2)cc1 [Compound I-0480]			0.0065 µM	0.0726 µM
N#Cc1cc(Cn2c(Nc3ccc4c(c3)CCO4)nc(=O)n(-c3cncc4ccccc34)c2=O)cc(F)c1F [Compound I-0481]			0.0027 µM	0.0432 µM
Cn1cnc(Cn2c(=O)nc(Nc3cc4c(cc3Cl)OCC4)n(Cc3cc(F)c(F)c(F)c3)c2=O)n1 [Compound I-0482]			0.015 µM	0.385 µM
Cn1cnc(Cn2c(=O)nc(Nc3cc4cn(C)nc4cc3Cl)n(Cc3cc(F)c(F)c(F)c3F)c2=O)n1 [Compound I-0483]			0.0098 µM	0.395 µM
Cc1cncc(-n2c(=O)nc(Nc3ccc4nn(CC(F)(F)F)cc4c3)n(Cc3cc(C#N)ccc3Cl)c2=O)c1 [II-0001]			0.0034 µM	0.466 µM
CN(C)C(=O)Cn1cc2cc(Nc3nc(=O)n(-c4cncc5ccccc45)c(=O)n3Cc3cc(F)c(F)cc3F)c(Cl)cc2n1 [II-0002]	< 0.1 µM	1 to 10 µM		
